“And” between values parts separate entries of the source, which are not always exact repeats. Equal entries are not always repeated. “Also recorded” adds a separate entry of the source.
Legend:
full-length PARP-1 = target: T1, full-length PARP-1 (Homo sapiens, UniProt P09874); assay: Colorimetric assay of full-length PARP-1 DNA-dependent activity; format: biochemical; details: for IC50: 20 nM PARP-1, 40 nM DNA (18-bp duplex), 50 μM NAD+ (99:1 NAD+:bio-NAD+)
T1 construct: Full-length PARP-1 WT (residues 1–1014) was cloned in pET28 vector; made in house; host or cells: E. coli
T1 sequence (P09874 whole entry, the tested form may be a part): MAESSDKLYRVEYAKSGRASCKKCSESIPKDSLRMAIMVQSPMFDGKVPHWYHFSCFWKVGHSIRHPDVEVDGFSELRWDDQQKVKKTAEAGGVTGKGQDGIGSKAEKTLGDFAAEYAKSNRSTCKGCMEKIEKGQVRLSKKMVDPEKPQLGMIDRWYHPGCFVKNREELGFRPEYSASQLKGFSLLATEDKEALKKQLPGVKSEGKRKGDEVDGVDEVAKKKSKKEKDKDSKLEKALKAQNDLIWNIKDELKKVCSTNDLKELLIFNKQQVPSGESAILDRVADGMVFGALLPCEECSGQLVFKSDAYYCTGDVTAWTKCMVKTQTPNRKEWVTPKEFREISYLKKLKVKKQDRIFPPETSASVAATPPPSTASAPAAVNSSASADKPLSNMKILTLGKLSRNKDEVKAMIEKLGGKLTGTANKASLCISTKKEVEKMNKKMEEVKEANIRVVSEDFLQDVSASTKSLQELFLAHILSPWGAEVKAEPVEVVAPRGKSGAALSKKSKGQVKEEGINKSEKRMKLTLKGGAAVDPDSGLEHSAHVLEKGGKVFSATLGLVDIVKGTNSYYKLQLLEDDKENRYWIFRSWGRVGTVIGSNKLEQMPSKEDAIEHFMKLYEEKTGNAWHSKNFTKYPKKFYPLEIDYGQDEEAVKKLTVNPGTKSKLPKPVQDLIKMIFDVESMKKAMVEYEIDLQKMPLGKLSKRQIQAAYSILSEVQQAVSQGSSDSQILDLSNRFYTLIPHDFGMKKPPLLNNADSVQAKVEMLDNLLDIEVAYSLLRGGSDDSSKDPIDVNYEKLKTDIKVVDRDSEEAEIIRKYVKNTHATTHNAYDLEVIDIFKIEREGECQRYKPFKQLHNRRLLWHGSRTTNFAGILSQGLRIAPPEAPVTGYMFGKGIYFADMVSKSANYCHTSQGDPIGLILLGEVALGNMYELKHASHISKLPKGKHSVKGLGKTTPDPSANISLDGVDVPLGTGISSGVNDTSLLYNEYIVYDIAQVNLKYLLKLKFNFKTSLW
Procedure: The colorimetric assay was performed as described, [28] using 20 nM of protein and 40 nM DNA (18-bp duplex). A mixture of NAD^+ and biotinylated NAD^+ (bio-NAD^+) was used at a 99:1 ratio and a final concentration of 50 µM. Reactions were allowed to proceed for 5 min before quenching. Three independent experiments were performed.

PARP-1 CAT WT = target: T2, PARP-1 CAT WT (Homo sapiens, UniProt P09874); assay: Isothermal titration calorimetry (ITC), PARP-1 CAT WT; format: binding
T2 construct: The PARP-1 CAT WT (residues 661–1014) was cloned in pET28 vector; made in house; host or cells: E. coli
T2 sequence (P09874 661-1014): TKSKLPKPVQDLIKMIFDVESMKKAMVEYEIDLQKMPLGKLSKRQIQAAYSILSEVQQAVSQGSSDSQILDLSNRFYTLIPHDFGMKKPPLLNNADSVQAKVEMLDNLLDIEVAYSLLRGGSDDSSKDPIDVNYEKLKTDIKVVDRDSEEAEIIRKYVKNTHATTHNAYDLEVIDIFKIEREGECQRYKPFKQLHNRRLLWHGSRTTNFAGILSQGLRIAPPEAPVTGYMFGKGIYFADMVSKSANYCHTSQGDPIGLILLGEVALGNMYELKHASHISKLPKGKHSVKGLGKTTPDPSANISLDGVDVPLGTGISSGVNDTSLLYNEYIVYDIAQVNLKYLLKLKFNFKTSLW
Procedure: ITC experiments were performed using a MicroCal iTC200 calorimeter (GE Healthcare). BAD or benzamide at 525 μM was titrated into PARP-1 protein (50 μM for CAT WT and CAT ΔHD, 40 μM for full-length PARP-1 WT and mutants) or PARP-1 protein with DNA (20–40 μM) at 25°C. Prior to the experiment, proteins and DNA were dialyzed in 25 mM Hepes pH 8.0, 150 mM NaCl, 1 mM EDTA, and 0.1 mM TCEP. BAD and benzamide were diluted in the dialysis buffer. PARP-1/DNA complexes were assembled and incubated at RT for 30 min prior to performing the experiment. Experiments were typically designed as follows: a first injection of 0.2 μL was followed by 16 injections of 2.5 μL with a spacing of 100 s between injections. Excess heat upon each injection was integrated using an automatically adjusted base line and derived values corrected by heat of dilution. Data analysis and curve fitting were conducted using Origin 7 software. The ITC experiment for each sample was performed either two (PARP-1 WT with benzamide, PARP-1 E763/D766/D770A with benzamide, PARP-1 D766/D770A with BAD) or three times (the remaining eight samples). Table 2 lists the average KD value and stoichiometry (n) for the replicates, and the reported errors are the calculated standard deviations (representing the range of values for experiments repeated two times). We anticipate that the sub-stoichiometric n values for CAT constructs results from either the active fraction being < 100%, or the protein concentration determination being not entirely accurate. The analysis of full-length PARP-1 yielded n values around the expected value of 1.

PARP-1 = target: T3, PARP-1 (Homo sapiens, UniProt P09874); assay: HXMS analysis of PARP-1 dynamics; details: for HX of an ART active site peptide (a.a. 901–917): 10^4 s time point, PARP-1 alone or in complex with DNA
T3 construct: Full-length PARP-1 WT (residues 1–1014) was cloned in pET28 vector; made in house; host or cells: E. coli
T3 sequence (P09874 whole entry, the tested form may be a part): as the sequence (P09874 whole entry, the tested form may be a part) above
Procedure: Deuterium on-exchange was carried out at RT by mixing 5 µL of each sample (8 µM concentration) with 15 µL of deuterium on-exchange buffer (10 mM HEPES, pD 7.0, 150 mM NaCl, in D2O) yielding a final D2O concentration of 75%. pD values for deuterium-based buffers were calculated as pD = pH + 0.41[38]. Upon mixing with on-exchange buffer, the amide protons will be replaced over time with deuterons yielding an increased peptide mass. To quench the deuterium exchange reaction, the sample (20 µl) was mixed with 30 µl of ice-cold quench buffer (1.66 M guanidine hydrochloride, 10% glycerol, and 0.8% formic acid, for a final pH of 2.4–2.5) and rapidly frozen in liquid nitrogen. For the MS analysis, each sample (50 µL) was melted on ice and loaded onto an in-house packed pepsin column for digestion. Pepsin (Sigma) was coupled to POROS 20 AL support (Applied Biosystems), and the immobilized pepsin was packed into a column housing (2 mm × 2 cm, Upchurch). Pepsin-digested peptides were captured on TARGA C8 5 µm Piccolo HPLC column (1.0 × 5.0 mm, Higgins Analytical) and eluted through an analytical C18 HPLC column (0.3 × 75 mm, Agilent) by a shaped 12–100% buffer B gradient at 6 µL per min (Buffer A: 0.1% formic acid; Buffer B: 0.1% formic acid, 99.9% acetonitrile). The effluent was electrosprayed into the mass spectrometer. Non-deuterated (ND) PARP-1 samples were prepared in 10 mM HEPES, pH 7.0, 150 mM NaCl buffer, and mixed with the quench buffer to mimic the samples from on-exchange reaction. Peptides of ND samples were analyzed in tandem MS (LTQ Orbitrap XL, Thermo Fisher Scientific). We analyzed MS/MS data collected from these samples to identify potential PARP-1 peptides using SEQUEST (Bioworks v3.3.1, Thermo Fisher Scientific) with a peptide tolerance of 8 ppm and a fragment tolerance of 0.1 AMU. Deuterated samples were then analyzed on an Exactive Plus EMR-Orbritrap (Thermo Fisher Scientific). A MATLAB based program, ExMS[39] was used for HXMS data processing. […] The level of deuteration of individual peptides was measured by comparing them to the ND sample. […] For each peptide, we compare the extent of deuteration as measured in the FD sample to the theoretical maximal deuteration (i.e., if no back-exchange occurs); the median extent of back-exchange in our datasets is only 15%.
Peptide plotting and calculations were performed in MATLAB. […] For comparing two different HXMS datasets, we plot the percent difference of each peptide, which is calculated by subtracting the percent deuteration of one sample from that of another, and plotted according to the color legend in stepwise increments (as in Fig. 5b). […]

[1] = CAT WT 50 μM, compound 525 μM titrated, 25°C

SMILES | IC50 (full-length PARP-1) | KD (PARP-1 CAT WT; [1]) | HX in peptides localized to HD helices αB and αF (PARP-1; 10^2 s time point, PARP-1 bound to a DNA strand break) | HX of an ART active site peptide (a.a. 901–917) (PARP-1) | HX in regions outside of the CAT (domain-domain and domain-DNA interfaces) (PARP-1; PARP-1 in complex with DNA, not in the absence of DNA) | inhibition of DNA damage-dependent activity of full-length PARP-1 (full-length PARP-1; 20 nM PARP-1, 40 nM DNA, 50 μM NAD+) | n (stoichiometry) (PARP-1 CAT WT; CAT WT) | Kd (PARP-1 CAT WT; [1]) [µM]
NC(=O)c1cccc(C2OC(COP(=O)(O)OP(=O)(O)OCC3OC(n4cnc5c(N)ncnc54)C(O)C3O)C(O)C2O)c1 (stereo not shown) [BAD, benzamide adenine dinucleotide] | 8.6 µM and 8.63 µM | no measureable heat exchange; also recorded: No binding | increased HX | only observed with PARP-1 in complex with DNA | decrease in HX |  |  | 
NC(=O)c1ccccc1 [benzamide] | 4.6 µM and 4.62 µM |  |  | decreased HX in the same ART peptide for both PARP-1 alone and PARP-1 in complex with DNA |  | inhibits to a similar extent as the entire BAD molecule | 0.49 + /− 0.02 | 3.79

Source: PMC5829251, “NAD^+ analog reveals PARP-1 substrate-blocking mechanism and allosteric communication from catalytic center to DNA-binding domains” (Nature Communications, 2018)
